Consider 13 molecules from patent EP4741395A1, “NOVEL COMPOUND SENSITIVE TO NITROGEN MONOXIDE AND PHARMACEUTICAL COMPOSITION COMPRISING SAME” (Omniamed Co. Ltd, priority 2023, dated 2025).

The subject of one assay is Raw 264.7 cell line. The assay is described as follows: NO scavenging activity in LPS-treated immune cells (Griess reagent). The format is cell-based. Particulars: 24 hours; for activity at 10 µM: Mus musculus, RAW264.7, Raw 264.7, LPS 500 ng/mL, read-out: NO Scavenging Activity (%) (Mean±SD). Here is the method: Raw 264.7 cell line was seeded in a 48-well plate at a density of 8×10^4 cells/well, and cultured at 37°C in a DMEM medium including 10% FBS, 100 U/mL of penicillin and 100 µg/mL of streptomycin.
The medium was cultured overnight, and then replaced with a fresh medium including 10 µM of the pharmaceutical composition sensitive to nitrogen monoxide including the compound of each of Examples 1 to 30 and 500 ng/mL of LPS, and the fresh medium was cultured again for another 24 hours.
Lastly, in order to measure the amount of NO produced, the amount of NO2^- present in the cell culture medium was measured using a Griess reagent (sulfanilamide, N-1-naphthylethylenediamine dihydrochloride). Specifically, 100 µL of a Griess reagent was mixed with a mixture solution of 50 µL of the cell culture medium and 50 µL of PBS. The mixture solution was reacted for 10 minutes in a well plate, and absorbance thereof at 540 nm was measured.
Background: Nitrite, measured by Griess reagent, commonly stands in for NO production.

A short description of assay [1]: DAF-2 assay of NO scavenging activity (NO donor SNAP). Particulars: DAF-2 10 µM, SNAP 100 µM, PBS, 3 hours, 37°C. In kind it is biochemical. Here is the method:
NO scavenging activity of the pharmaceutical composition sensitive to nitrogen monoxide including the compound according to each of Examples 1 to 22, 29 to 31, and 33 to 35 was evaluated through a DAF-2 assay.
Specifically, a reagent stock solution was made using DMSO (dimethyl sulfoxide) in order to prepare 5 mM of DAF-2, 100 mM of SNAP and 5 mM of the compound synthesized in each of the Examples, and for the reaction, the solution was added to a PBS (phosphate buffered saline) solution so that DAF-2, SNAP and the compound had final concentrations of 10 µM, 100 µM and the concentration of Table 1, respectively, followed by a reaction for 3 hours in a 37°C incubator.

Assay [2] is described as follows: DAF-2 assay of NO scavenging activity without and with H2O2 (ROS). In kind it is biochemical. Particulars: SNAP 100 µM, DAF-2 10 µM, 3 hours, 37°C; for NO Scavenging Activity (%) (Mean±SD) With H2O2: H2O2 1 mM. On the procedure: The pharmaceutical composition sensitive to nitrogen monoxide including the compound according to each of Examples 23 to 28 and 32 may have scavenging activity for reactive oxygen species (ROS). NO scavenging activity of the pharmaceutical composition was evaluated through a DAF-2 assay.
Specifically, to a 100 µM solution of SNAP, the compound synthesized in each of the Examples was added at a concentration of the following Table 2, and reacted. Then 10 µM of DAF-2 was added thereto, followed by a reaction for 3 hours in a 37°C incubator.
Additionally, a stock solution of H2O2 (10 M) was added to the reaction solution so that SNAP and H2O2 had final concentrations of 100 µM and 1 mM, respectively. Then, the compound synthesized in each of the Examples was added thereto at a concentration of the following Table 11, followed by a reaction in the same manner, and NO scavenging activity was calculated by Equation 1.

Consider “N-(2-(3-(2-amino-5-hydroxyphenyl)-1-methylureido)ethyl)-4-(((1S,2R)-5-(2-cyanoacetyl)-2-methylcyclohexyl) (methyl)amino)-N-methyl-7H-pyrrolo[2,3-d]pyrimidine-7-carboxamide [Example 20]”, for which the “NO Scavenging Activity (%) (Mean±SD)” value in the assay with Raw 264.7 cell line (10 µM, Raw 264.7, LPS 500 ng/mL) was 59.5±0.11%.

As to `COc1ccc(NC(=O)N(C)CCN(C)C(=O)n2ccc3c(N(C)[C@H]4CN(C(=O)CC#N)CC[C@H]4C)ncnc32)c(N)c1` [Example 17, N-(2-(3-(2-amino-4-methoxyphenyl)-1-methylureido)ethyl)-4-(((3R,4R)-1-(2-cyanoacetyl)-4-methylpiperidin-3-yl) (methyl)amino)-N-methyl-7H-pyrrolo[2,3-d]pyrimidine-7-carboxamide], the activity at 10 µM in the assay with Raw 264.7 cell line came to 29.6 ± 2.95%.

As for `CC[C@@H]1CN(C(=O)NCC(F)(F)F)C[C@@H]1c1cnc2cnc3c(ccn3C(=O)Nc3cc4c(cc3N)n(C)c(=O)n4C)n12` [Example 31, N-(6-amino-1,3-dimethyl-2-oxo-2,3-dihydro-1H-benzo[d]imidazol-5-yl)-8-((3R,4S)-4-ethyl-1-((2,2,2-trifluoroethyl)carbamoyl)pyrrolidin-3-yl)-3H-imidazo[1,2-a]pyrrolo[2,3-e]pyrazine-3-carboxamide], the “NO Scavenging Activity (%) (Mean±SD)” value in assay [1] (compound 1 µM) is reported as 79.61 ±3.60%; in assay [1] (compound 5 µM) it was 90.34 ±0.98%; in assay [1] (compound 10 µM), 92.21 ±0.98%.

Turning to `CC1CC2C3CCC4=CC(=O)C=CC4(C)C3(F)C(O)CC2(C)C1(O)C(=O)COC(=O)Nc1ccccc1N` (centres unmarked) [Example 33, 2-(9-fluoro-11,17-dihydroxy-10,13,16-trimethyl-3-oxo-6,7,8,9,10,11,12,13,14,15,16,17-dodecahydro-3H-cyclopenta[a]phenanthren-17-yl)-2-oxoethyl (2-aminophenyl) carbamate], the “NO Scavenging Activity (%) (Mean±SD)” value in assay [1] (compound 1 µM) came out at 2.22± 4.76%; in assay [1] (compound 5 µM), 1.72± 4.28%; in assay [1] (compound 10 µM), 1.52± 10.22%.

As for `CC[C@@H]1CN(C(=O)NCC(F)(F)F)C[C@@H]1c1cnc2cnc3c(ccn3C(=O)Nc3cc4c(cc3NC(=O)OCc3ccc(B(O)O)cc3)n(C)c(=O)n4C)n12` [Example 32, (4-((((6-(8-((3R,4S)-4-ethyl-1-((2,2,2-trifluoroethyl)carbamoyl)pyrrolidin-3-yl)-3H-imidazo[1,2-a]pyrrolo[2,3-e]pyrazine-3-carboxamido)-1,3-dimethyl-2-oxo-2,3-dihydro-1H-benzo[d]imidazol-5-yl)carbamoyl)oxy)methyl)phenyl)boronic acid], the “NO Scavenging Activity (%) (Mean±SD) Without H2O2” value is listed as 6.42± 10.86% in assay [2] (compound 1 µM), 6.84± 5.21% in assay [2] (compound 5 µM) and 9.26± 5.51% in assay [2] (compound 10 µM). For the same molecule, the “NO Scavenging Activity (%) (Mean±SD) With H2O2” value is recorded as 4.05± 3.57% in assay [2] (compound 1 µM), 29.92 ±7.09% in assay [2] (compound 5 µM) and 32.06 ±3.99% in assay [2] (compound 10 µM).

On to `C[C@@H]1CCN(C(=O)CC#N)C[C@@H]1N(C)c1ncnc2c1ccn2C(=O)N(C)CCN(C)C(=O)Nc1ccc(O)cc1N` [Example 19, N-(2-(3-(2-amino-4-hydroxyphenyl)-1-methylureido)ethyl)-4-(((3R,4R)-1-(2-cyanoacetyl)-4-methylpiperidin-3-yl) (methyl)amino)-N-methyl-7H-pyrrolo[2,3-d]pyrimidine-7-carboxamide], for which the activity at 10 µM in the assay on Raw 264.7 cell line was 54.1 ± 2.51%.

As to `COc1ccc(N)c(NC(=O)n2ccc3c(N(C)[C@H]4CN(C(=O)CC#N)CC[C@H]4C)ncnc32)c1` [Example 7, N-(2-amino-5-methoxyphenyl)-4-(((3R,4R)-1-(2-cyanoacetyl)-4-methylpiperidin-3-yl)(methyl)amino)-7H-pyrrolo[2,3-d]pyrimidine-7-carboxamide], the activity at 10 µM in the assay on Raw 264.7 cell line is 88.2 ± 0.06%.

Regarding `C[C@@H]1CCN(C(=O)CC#N)C[C@@H]1N(C)c1ncnc2c1ccn2C(=O)Nc1ccc(O)cc1N` [Example 8, N-(2-amino-4-hydroxyphenyl)-4-(((3R,4R)-1-(2-cyanoacetyl)-4-methylpiperidin-3-yl)(methyl)amino)-7H-pyrrolo[2,3-d]pyrimidine-7-carboxamide], the activity at 10 µM in the assay on Raw 264.7 cell line was 72.6 ± 0.31%.

`COc1ccc(NC(=O)n2ccc3c(N(C)[C@H]4CN(C(=O)CC#N)CC[C@H]4C)ncnc32)c(N)c1` [Example 6, N-(2-amino-4-methoxyphenyl)-4-(((3R,4R)-1-(2-cyanoacetyl)-4-methylpiperidin-3-yl)(methyl)amino)-7H-pyrrolo[2,3-d]pyrimidine-7-carboxamide]: the activity at 10 µM in the assay on Raw 264.7 cell line amounted to 68.5 ± 0.11%.

With `Cc1ccc(NC(=O)OCC(=O)C2(O)C(C)CC3C4CCC5=CC(=O)C=CC5(C)C4(F)C(O)CC32C)c(N)c1` (centres unmarked) [Example 34, 2-(9-fluoro-11,17-dihydroxy-10,13,16-trimethyl-3-oxo-6,7,8,9,10,11,12,13,14,15,16,17-dodecahydro-3H-cyclopenta[a]phenanthren-17-yl)-2-oxoethyl (2-amino-4-methylphenyl) carbamate], in assay [1] (compound 10 µM), the “NO Scavenging Activity (%) (Mean±SD)” value was found to be 0.76± 5.81%.

For “cyanocobalamin [Vitamin B12, reference compound]”, the “NO Scavenging Activity (%) (Mean±SD)” value is on record as 3.18± 1.03% in assay [1] (compound 1 µM); 8.98± 2.46% in assay [1] (compound 5 µM); 12.37 ±3.73% in assay [1] (compound 10 µM); 41.09 ±1.57% in assay [1] (compound 100 µM); 99.48 ±0.95% in assay [1] (compound 1,000 µM).

On to `C[C@@H]1CCN(C(=O)CC#N)C[C@@H]1N(C)c1ncnc2c1ccn2C(=O)Nc1cc(O)ccc1N` [Example 9, N-(2-amino-5-hydroxyphenyl)-4-(((3R,4R)-1-(2-cyanoacetyl)-4-methylpiperidin-3-yl)(methyl)amino)-7H-pyrrolo[2,3-d]pyrimidine-7-carboxamide], for which, in the assay with Raw 264.7 cell line, the activity at 10 µM was determined as 78.9 ± 0.21%.

As to `C[C@@H]1CCN(C(=O)CC#N)C[C@@H]1N(C)c1ncnc2c1ccn2C(=O)N(C)CCN(C)C(=O)Nc1ccccc1N` [Example 14, N-(2-(3-(2-aminophenyl)-1-methylureido)ethyl)-4-(((3R,4R)-1-(2-cyanoacetyl)-4-methylpiperidin-3-yl)(methyl)amino)-N-methyl-7H-pyrrolo[2,3-d]pyrimidine-7-carboxamide], the activity at 10 µM in the assay on Raw 264.7 cell line worked out at 46 ± 2.52%.
